Results published in ChEMBL document CHEMBL1201862, “PubChem BioAssay data set” (2004).
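The compound was tested at five concentrations on cells cultured in 96-well plates, with a 48-hour exposure period. GI50: concentration for 50% inhibition of growth.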 The source made the active and inactive calls. Cut-off read from the data, not from the text of the source: active = GI50 up to about 1.1 µM and inactive = higher.

Columns and labels:
Test in all cases: NCI anticancer screen, dose series, 48 h
[1] = test system: IGROV-1
[2] = test system: HOP-92
[3] = test system: COLO 205
[4] = test system: Hs-578T
[5] = test system: SNB-19
[6] = test system: U-251
[7] = test system: SF-268
[8] = test system: M14
[9] = test system: HT-29
[10] = test system: CAKI-1
[11] = test system: HCT-116
[12] = test system: Malme-3M
[13] = test system: CCRF-CEM
[14] = test system: UO-31
[15] = test system: HL-60
[16] = test system: OVCAR-5
[17] = test system: NCI-H23

Structure (SMILES)	GI50 [1]	GI50 [2]	GI50 [3]	GI50 [4]	GI50 [5]	GI50 [6]	GI50 [7]	GI50 [8]	GI50 [9]	GI50 [10]	GI50 [11]	GI50 [12]	GI50 [13]	GI50 [14]	GI50 [15]	GI50 [16]	GI50 [17]
CCC1(O)CC(OC2CC(N(C)C)C(OC3CC(O)C(OC4OC(C)C(=O)C=C4N)C(C)O3)C(C)O2)c2c(O)c3c(c(O)c2C1C(=O)OC)C(=O)c1cccc(O)c1C3=O (configuration not stated)	0.00354 µM (active)	0.0164 µM (active)	0.00376 µM (active)	0.0309 µM (active)	0.00929 µM (active)	0.00336 µM (active)	0.0925 µM (active)	0.01 µM (active)	0.00475 µM (active)	0.00489 µM (active)	0.000617 µM (active)	0.0114 µM (active)	0.00284 µM (active)	0.0472 µM (active)	0.00154 µM (active)	0.00792 µM (active)	0.0189 µM (active)
N#C/C=C1\C=CC(O)C(O)C1OC1OC(CO)C(O)C(O)C1O (configuration not stated)	> 100 µM (inactive)	> 100 µM (inactive)	> 100 µM (inactive)	> 100 µM (inactive)	> 100 µM (inactive)	> 100 µM (inactive)	> 100 µM (inactive)	> 100 µM (inactive)	> 100 µM (inactive)	> 100 µM (inactive)	> 100 µM (inactive)	> 100 µM (inactive)	> 100 µM (inactive)	> 100 µM (inactive)	> 100 µM (inactive)	> 100 µM (inactive)	> 100 µM (inactive)
Cc1cc(/N=C/c2ccc(N(C)C)cc2)n(-c2ccccc2)n1	50.6 µM (inactive)	> 100 µM (inactive)	24.8 µM (inactive)	29.9 µM (inactive)	61.2 µM (inactive)	27.4 µM (inactive)	74.3 µM (inactive)	49.2 µM (inactive)	12.6 µM (inactive)	62.7 µM (inactive)	25.5 µM (inactive)	> 100 µM (inactive)	22.2 µM (inactive)	> 100 µM (inactive)	17.9 µM (inactive)	> 100 µM (inactive)	51.2 µM (inactive)
NS(=O)(=O)c1ccc(Nc2c3ccccc3nc3c(C(=O)NC(CO)(CO)CO)cccc23)cc1	0.136 µM (active)	0.153 µM (active)	0.0515 µM (active)	0.154 µM (active)	0.217 µM (active)	0.119 µM (active)	0.17 µM (active)	0.186 µM (active)	0.184 µM (active)	0.218 µM (active)	0.144 µM (active)	0.135 µM (active)	0.0557 µM (active)	0.171 µM (active)	0.21 µM (active)	0.233 µM (active)	0.15 µM (active)
CC(C)(C)c1cc(C(=O)C2Cc3ccccc3C(=O)O2)cc(C(C)(C)C)c1O (configuration not stated)	14.5 µM (inactive)	18.2 µM (inactive)	17.6 µM (inactive)	29.3 µM (inactive)	11.8 µM (inactive)	10.5 µM (inactive)	14.5 µM (inactive)	12.6 µM (inactive)	14.4 µM (inactive)	19.3 µM (inactive)	10.2 µM (inactive)	14.6 µM (inactive)	5.01 µM (inactive)	11.2 µM (inactive)	4.88 µM (inactive)	16.6 µM (inactive)	13.9 µM (inactive)
N#Cc1cc(-c2nc3cc(F)ccc3s2)ccc1N	< 0.0112 µM (active)	4.08 µM (inactive)	1.8 µM (inactive)	15.8 µM (inactive)	18.2 µM (inactive)	12.4 µM (inactive)	18.1 µM (inactive)	33.6 µM (inactive)	1.97 µM (inactive)	> 38.7 µM (inactive)	9.51 µM (inactive)	> 79.1 µM (inactive)	> 100 µM (inactive)	42 µM (inactive)	> 100 µM (inactive)	0.0702 µM (active)	< 0.01 µM (active)
COC1OC(C)C(NC(=O)OCC(Cl)(Cl)Cl)C2OC(C)(C)OC12 (configuration not stated)	> 100 µM (inactive)	> 100 µM (inactive)	> 100 µM (inactive)	> 100 µM (inactive)	> 100 µM (inactive)	> 100 µM (inactive)	> 100 µM (inactive)	> 100 µM (inactive)	> 100 µM (inactive)	> 100 µM (inactive)	> 100 µM (inactive)	> 100 µM (inactive)	> 100 µM (inactive)	> 100 µM (inactive)	> 100 µM (inactive)	> 100 µM (inactive)	> 100 µM (inactive)
CCCNC(=O)Nc1ccc2c(c1)Cc1cc(N(CCCl)CCCl)ccc1-2	14.1 µM (inactive)	25.2 µM (inactive)	8.32 µM (inactive)	25.6 µM (inactive)	19.2 µM (inactive)	18 µM (inactive)	21.8 µM (inactive)	79.4 µM (inactive)	3.24 µM (inactive)	22.4 µM (inactive)	49.9 µM (inactive)	36 µM (inactive)	58.3 µM (inactive)	17.4 µM (inactive)	5.94 µM (inactive)	76 µM (inactive)	36.1 µM (inactive)
Cc1[nH]c(-c2ccccc2)c(-c2ccc(Cl)cc2)c1C(=O)ONC(=O)c1ccccc1	1.16 µM (inactive)	1.77 µM (inactive)	5.93 µM (inactive)	2.26 µM (inactive)	4.86 µM (inactive)	1.78 µM (inactive)	2.34 µM (inactive)	4.55 µM (inactive)	4.6 µM (inactive)	2.44 µM (inactive)	2.11 µM (inactive)	10.2 µM (inactive)	1.75 µM (inactive)	0.113 µM (active)	1.5 µM (inactive)	5.07 µM (inactive)	4.02 µM (inactive)
C[C@H]1[C@H](C)CC[C@]2(C(=O)OC3OC(CO)C(O)C(O)C3O)CC[C@]3(C)C(=CC[C@@H]4[C@@]5(C)C[C@H]6OC(=O)c7cc(O)c(O)c(O)c7-c7c(cc(O)c(O)c7O)C(=O)O[C@@H]6C(CO)(CO)[C@@H]5CC[C@]43C)[C@H]12 (some centres not stated)	> 100 µM (inactive)	> 100 µM (inactive)	> 100 µM (inactive)	> 100 µM (inactive)	43.7 µM (inactive)	17.7 µM (inactive)	> 69.8 µM (inactive)	> 100 µM (inactive)	24.1 µM (inactive)	19.5 µM (inactive)	54.1 µM (inactive)	> 100 µM (inactive)	24.5 µM (inactive)	58.1 µM (inactive)	44 µM (inactive)	> 95.9 µM (inactive)	> 100 µM (inactive)
COC(=O)[C@@H]1CN(C(C)=O)C(=O)N1	> 100 µM (inactive)	> 100 µM (inactive)	> 100 µM (inactive)	> 100 µM (inactive)	> 100 µM (inactive)	> 100 µM (inactive)	> 100 µM (inactive)	> 100 µM (inactive)	> 100 µM (inactive)	> 100 µM (inactive)	> 100 µM (inactive)	> 100 µM (inactive)	> 100 µM (inactive)	> 100 µM (inactive)	> 100 µM (inactive)	> 100 µM (inactive)	> 100 µM (inactive)
